In one test the target is T1, receptor tyrosine kinase (Homo sapiens, UniProt P00533).
T1 construct: The supernatant, containing solubilised receptor tyrosine kinase, was stored in liquid nitrogen; endogenous in cells; host or cells: A-431 cells (human vulval carcinoma); detergent-solubilised membrane fraction
Description: Test (a): in vitro receptor tyrosine kinase inhibition assay (EGF-stimulated peptide phosphorylation, [γ-32P]ATP). As to conditions: enzyme partially purified from A-431 cells (human vulval carcinoma); in presence of EGF; 25°C for 10 minutes. Format: biochemical. As for the experimental part:
(a) An in vitro assay which determines the ability of a test compound to inhibit the enzyme receptor tyrosine kinase. Receptor tyrosine kinase was obtained in partially purified form from A-431 cells (derived from human vulval carcinoma) by procedures related to those described by Carpenter et al., J. Biol. Chem., 1979, 254, 4884, Cohen et al., J. Biol. Chem., 1982, 257, 1523 and by Braun et al., J. Biol. Chem., 1984, 259, 2051.
A-431 cells were grown to confluence using Dulbecco′s modified Eagle′s medium (DMEM) containing 5% fetal calf serum (FCS). The obtained cells were homogenised in a hypotonic borate/EDTA buffer at pH 10.1. The homogenate was centrifuged at 400 g for 10 minutes at 0-4°C. The supernatant was centrifuged at 25,000 g for 30 minutes at 0-4°C. The pelleted material was suspended in 30 mM Hepes buffer at pH 7.4 containing 5% glycerol, 4 mM benzamidine and 1% Triton X-100, stirred for 1 hour at 0-4°C, and recentrifuged at 100,000 g for 1 hour at 0-4°C. The supernatant, containing solubilised receptor tyrosine kinase, was stored in liquid nitrogen.
For test purposes 40 µl of the enzyme solution so obtained was added to a mixture of 400 µl of a mixture of 150 mM Hepes buffer at pH 7.4, 500 µM sodium orthovanadate, 0.1% Triton X-100, 10% glycerol, 200 µl water, 80 µl of 25 mM DTT and 80µl of a mixture of 12.5 mM manganese chloride, 125 mM magnesium chloride and distilled water. There was thus obtained the test enzyme solution.
Each test compound was dissolved in dimethylsulphoxide (DMSO) to give a 50 mM solution which was diluted with 40 mM Hepes buffer containing 0.1% Triton X-100, 10% glycerol and 10% DMSO to give a 500 µM solution. Equal volumes of this solution and a solution of epidermal growth factor (EGF; 20 µg/ml) were mixed.
[γ-^32P]ATP (3000 Ci/mM, 250 µCi) was diluted to a volume of 2 ml by the addition of a solution of ATP (100 µM) in distilled water. An equal volume of a 4 mg/ml solution of the peptide Arg-Arg-Leu-Ile-Glu-Asp-Ala-Glu-Tyr-Ala-Ala-Arg-Gly in a mixture of 40 mM Hepes buffer at pH 7.4, 0.1% Triton X-100 and 10% glycerol was added.
The test compound/EGF mixture solution (5 µl) was added to the test enzyme solution (10 µl) and the mixture was incubated at 0-4°C for 30 minutes. The ATP/peptide mixture (10 µl) was added and the mixture was incubated at 25°C for 10 minutes. […] Radioactivity present in the filter paper was measured using a liquid scintillation counter (Sequence A). […]
Receptor tyrosine kinase inhibition was calculated as follows:- % Inhibition =[…] [formula]
The extent of inhibition was then determined at a range of concentrations of test compound to give an IC50 value.

Test [1] relates to human naso-pharyngeal cell line KB. Put plainly: Test (b): in vitro inhibition of EGF-stimulated growth of KB cells (MTT). It counts as cell-based. As to conditions: 72 h, EGF (10 ng/ml), incubation for 3 days. Here is the method: (b) An in vitro assay which determines the ability of a test compound to inhibit the growth of the human naso-pharyngeal cell line KB.
KB cells were seeded into wells at a density of 1 x 10 - 1.5 x 10^4 cells per well and grown for 24 hours in DMEM supplemented with 5% FCS (charcoal-stripped). Cell growth was determined after incubation for 3 days by the extent of metabolism of MTT tetrazolium dye to furnish a bluish colour. Cell growth was then determined in the presence of EGF (10 ng/ml) or in the presence of EGF (10 ng/ml) and a test compound at a range of concentrations. An IC50 value could then be calculated.

We go through four compounds from EP0520722B1, “Therapeutic preparations containing quinazoline derivatives” (ZENECA LIMITED, priority 1991, dated 1992).

As a reminder, the IC50 is the concentration needed to halve the response being measured.

Molecules are shown by their SMILES. Structures can show the parent of a compound that is named as a salt.

T1 sequence (P00533 25-1210): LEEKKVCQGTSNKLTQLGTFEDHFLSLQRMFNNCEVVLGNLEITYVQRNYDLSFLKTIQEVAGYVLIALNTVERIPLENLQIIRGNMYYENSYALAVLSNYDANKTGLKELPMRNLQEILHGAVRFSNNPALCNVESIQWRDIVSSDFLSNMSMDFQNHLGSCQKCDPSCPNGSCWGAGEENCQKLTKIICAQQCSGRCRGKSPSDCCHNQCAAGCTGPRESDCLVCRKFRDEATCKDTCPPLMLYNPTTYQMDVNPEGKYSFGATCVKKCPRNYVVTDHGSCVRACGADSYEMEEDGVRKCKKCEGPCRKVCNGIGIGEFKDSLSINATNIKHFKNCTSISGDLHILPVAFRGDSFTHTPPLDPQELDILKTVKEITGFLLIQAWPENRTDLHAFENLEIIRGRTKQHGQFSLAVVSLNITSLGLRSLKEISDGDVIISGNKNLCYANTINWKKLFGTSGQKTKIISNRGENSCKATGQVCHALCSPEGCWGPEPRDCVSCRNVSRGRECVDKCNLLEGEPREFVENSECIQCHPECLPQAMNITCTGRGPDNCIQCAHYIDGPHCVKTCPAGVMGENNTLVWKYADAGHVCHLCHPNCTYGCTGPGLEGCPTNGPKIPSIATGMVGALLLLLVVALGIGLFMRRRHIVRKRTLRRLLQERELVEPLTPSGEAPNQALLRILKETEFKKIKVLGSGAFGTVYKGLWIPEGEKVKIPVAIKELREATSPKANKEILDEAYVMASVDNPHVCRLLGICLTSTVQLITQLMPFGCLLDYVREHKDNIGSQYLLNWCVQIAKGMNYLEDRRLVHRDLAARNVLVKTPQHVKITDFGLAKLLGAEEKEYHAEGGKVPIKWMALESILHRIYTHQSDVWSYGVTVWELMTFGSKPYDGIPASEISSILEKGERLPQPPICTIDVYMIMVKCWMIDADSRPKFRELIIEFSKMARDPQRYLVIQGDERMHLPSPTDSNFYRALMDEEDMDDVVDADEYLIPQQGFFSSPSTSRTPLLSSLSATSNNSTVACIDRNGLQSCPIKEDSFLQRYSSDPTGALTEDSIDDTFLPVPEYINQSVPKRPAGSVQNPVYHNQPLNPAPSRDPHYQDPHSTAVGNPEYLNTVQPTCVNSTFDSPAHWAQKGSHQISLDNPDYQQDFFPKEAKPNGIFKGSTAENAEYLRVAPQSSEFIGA

On to `Brc1cccc(Nc2ncnc3ccccc23)c1` [4-(3'-bromoanilino)quinazoline, 4-(3'-bromoanilino)quinazoline hydrochloride], for which the values for the concentration for half-maximal inhibition (IC50) (on receptor tyrosine kinase; in test [1]) were 20 nM and 780 nM, respectively.
For `Cc1cccc(Nc2ncnc3ccccc23)c1` [4-(3'-methylanilino)-quinazoline] the same measures were 180 nM and approximately 5000 nM.
Turning to `Clc1cccc(Nc2ncnc3ccccc23)c1` [4-(3'-chloroanilino)quinazoline, 4-(3′-chloroanilino)quinazoline hydrochloride], the IC50 at receptor tyrosine kinase is 40 nM; in test [1], approximately 5000 nM.
In the same order, the values of `Clc1cccc(Nc2ncnc3cc(Cl)ccc23)c1` [7-chloro-4-(3'-chloroanilino)quinazoline] are 20 nM and 1000 nM.
